The results in this text go back to PMC6202380 (2018).

Structures are written as SMILES.

The subject of test [1] is hras-1 (DNA, G4) TCGGGTTGCGGGCGCAGGGCACGGGCG
The test can be described thus: CD spectroscopy. The conditions noted are these: 100 mM K+; K-100 buffer, pH 7.2, 20 °C; 5 µM DNA, 10 µM ligand.

The test system of test [2] is 22AG (DNA, G4) AGGGTTAGGGTTAGGGTTAGGG
As to the kind of experiment: fluorimetric titration. The settings on record: 100 mM K+; K-100 buffer, pH 7.2; 2 µM ligand; binding constant could not be determined.

Test [3] concerns ^BrU-22AG (DNA, G4, 5-bromouracil (replacing T) at 5, 6, 11, 12, 17, 18) AGGGTTAGGGTTAGGGTTAGGG
The test can be described thus: PAGE of UVA photoadduct. The conditions noted are these: 100 mM K+; covalent; K-100 buffer, pH 7.2; 5 µM DNA, 25 µM ligand, 365 nm.

In test [4] the test system is 22AG (DNA, G4) AGGGTTAGGGTTAGGGTTAGGG
The test can be described thus: CD spectroscopy. The settings on record: 100 mM K+; K-100 buffer, pH 7.2, 20 °C; 5 µM DNA, 10 µM ligand.

The subject of test [5] is F-CEB25^L111-T (DNA, G4) AAGGGTGGGTGGGTGGGT
As to the kind of experiment: FRET melting. The settings on record: 1 mM K+, 99 mM Li+; 10 mM LiAsO2Me2, pH 7.2 (K-1); 0.2 µM DNA, 1 µM ligand.

Test [6] concerns 22AG (DNA, G4) AGGGTTAGGGTTAGGGTTAGGG
As to the kind of experiment: fluorimetric titration, independent-site model. The conditions noted are these: 2 µM ligand.

The test system of test [7] is bcl2Mid (DNA, G4) GGGCGCGGGAGGAATTGGGCGGG
As to the kind of experiment: fluorimetric titration, independent-site model. The conditions noted are these: 100 mM K+; 10 mM LiAsO2Me2, pH 7.2 (K-100); 2 µM ligand.

The test system of test [8] is 22CTA (DNA, G4) AGGGCTAGGGCTAGGGCTAGGG
As to the kind of experiment: fluorimetric titration, independent-site model. The conditions noted are these: 100 mM K+; 10 mM LiAsO2Me2, pH 7.2 (K-100); 2 µM ligand.

Test [9] relates to hras-1 (DNA, G4) TCGGGTTGCGGGCGCAGGGCACGGGCG
The test can be described thus: fluorimetric titration, independent-site model. The settings on record: 100 mM K+; 10 mM LiAsO2Me2, pH 7.2 (K-100); 2 µM ligand.

For test [10], the system named is CEB25^WT (DNA, G4) AAGGGTGGGTGTAAGTGTGGGTGGGT
As to the kind of experiment: fluorimetric titration, independent-site model. The settings on record: 100 mM K+; K-100 buffer, pH 7.2; 2 µM ligand; Table 2 prints 0.54, text gives 0.54 to CEB25^L111.

Test [11] relates to CEB25^L111 (DNA, G4) AAGGGTGGGTGGGTGGGT
The test can be described thus: fluorimetric titration, independent-site model. The conditions noted are these: 100 mM K+; K-100 buffer, pH 7.2; 2 µM ligand; value from text, Table 2 prints 1.5 for this oligonucleotide.

Test [12] has as its system Pu24T (DNA, G4) TGAGGGTGGTGAGGGTGGGGAAGG
As to the kind of experiment: fluorimetric titration, independent-site model. The settings on record: 100 mM K+; 10 mM LiAsO2Me2, pH 7.2 (K-100); 2 µM ligand.

The test system of test [13] is ds26 (DNA, duplex) CAATCGGATCGAATTCGATCCGATTG
The test can be described thus: fluorimetric titration, independent-site model. The settings on record: 100 mM K+; 10 mM LiAsO2Me2, pH 7.2 (K-100); 2 µM ligand.

`c1cc2ccc3ccc(CCCCNCCN4CCNCc5ccc6cc(ccc6c5)CNCCOCCNCc5ccc6cc(ccc6c5)CNCC4)c4ccc(c1)c2c34`: the binding result in test [1], in [2] and in test [3] was “yes” each time.

With `NCCCN1CCNCc2ccc3cc(ccc3c2)CNCCOCCNCc2ccc3cc(ccc3c2)CNCC1`, the binding entry in [4] and in [1] was “yes” each time.

Take `C[n+]1cc(NC(=O)c2ccc3ccc4ccc(C(=O)Nc5cc6ccccc6[n+](C)c5)nc4c3n2)cc2ccccc21`: the ΔT½ in test [5] was found to be 13 °C.

As for `NCCN(CCN)CCNCCCCc1ccc2ccc3cccc4ccc1c2c34`, the binding entry in test [4] and in test [1] was “yes” throughout.

As for `c1cc2ccc3ccc(CCCCNCCN4CCNCc5ccc6cc(ccc6c5)CNCCN(CCNCCCCc5ccc6ccc7cccc8ccc5c6c78)CCNCc5ccc6cc(ccc6c5)CNCC4)c4ccc(c1)c2c34`, the ΔT½ in [5] is 11 °C. Moreover, in test [3], the binding result is on record as “yes”. The Ka in test [6] (100 mM K+, 10 mM LiAsO2Me2, pH 7.2 (K-100)) was 1.8e+06 M⁻¹; in test [6] (100 mM Na+, 10 mM LiAsO2Me2, pH 7.2 (Na-100)) it was 1.4e+06 M⁻¹; in [7] it was 1.8e+06 M⁻¹; in test [8], 3.9e+06 M⁻¹; in test [9], 1.1e+06 M⁻¹; in test [10], 0.54 10^6 M^-1. In addition, the Ka in test [11] was found to be 540000 M⁻¹; in [12] it was 1.5e+06 M⁻¹; in test [13], 480000 M⁻¹.
